Structures can show the parent of a compound that is named as a salt. Active and inactive are the calls of the source.
Key:
[1] = HEK293T cell cytotoxicity, dose response, cytotoxicity control for HIV Vif inhibitor project, cherry-picks (AID 652208); format: functional, cell-based
Cytochrome P450 1A2 = molecular target: T1, Cytochrome P450 1A2 (Homo sapiens, UniProt P05177);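 further: PubChem cytochrome P450 panel assay, CYP1A2 panel member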
T1 sequence (P05177 whole entry): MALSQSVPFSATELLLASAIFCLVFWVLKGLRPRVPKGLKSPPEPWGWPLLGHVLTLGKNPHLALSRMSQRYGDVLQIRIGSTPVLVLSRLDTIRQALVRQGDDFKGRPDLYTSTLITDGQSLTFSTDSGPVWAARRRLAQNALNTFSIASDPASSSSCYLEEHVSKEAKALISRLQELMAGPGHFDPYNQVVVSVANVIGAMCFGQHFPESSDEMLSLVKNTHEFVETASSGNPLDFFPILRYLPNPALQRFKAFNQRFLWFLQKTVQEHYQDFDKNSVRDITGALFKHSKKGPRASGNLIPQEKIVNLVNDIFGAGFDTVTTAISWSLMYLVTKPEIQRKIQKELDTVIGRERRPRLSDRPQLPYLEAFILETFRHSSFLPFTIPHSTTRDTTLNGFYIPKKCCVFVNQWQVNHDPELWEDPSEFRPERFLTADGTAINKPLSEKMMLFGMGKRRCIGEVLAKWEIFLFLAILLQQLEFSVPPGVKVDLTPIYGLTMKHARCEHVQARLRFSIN

Cytochrome P450 3A4 = Cytochrome P450 3A4 (Homo sapiens, UniProt P08684);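 further: CYP3A4 tested as one member of a cytochrome P450 panel screen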
Mu-type opioid receptor = Mu-type opioid receptor (Homo sapiens, UniProt P35372); format: functional, cell-based;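 further: U2OS cells with beta-arrestin recruitment to OPRM1 by beta-gal complementation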
[2] = molecular target: 5-hydroxytryptamine receptor 2A (Mus musculus, UniProt P35363); format: functional, cell-based;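 further: CHO-K1 cells with tagged receptor and beta-arrestin; agonist potency measured as compound-induced activation of the receptor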
Large T antigen = Large T antigen (Simian virus 40, UniProt P03070); format: functional, Betapolyomavirus macacae;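 further: Confirmatory-stage PubChem screen for compounds that inhibit SV40 T antigen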
[3] = inhibitors of intracellular T. cruzi replication, confirmation, NIH3T3 host cells, beta-gal luminescence (AID 2044); format: functional, cell-based;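 further: intracellular parasites grown in NIH/3T3 mouse fibroblasts as host cells; luminescent beta-galactosidase reporter signal from transgenic T. cruzi replicating inside host cells; inhibitors lower the luminescence signal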
[4] = cytotoxicity toward NIH3T3 fibroblasts, dose response, counter-screen, cell-based, ATP luminescence, mouse fibroblasts (AID 2010); format: functional;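 further: cells exposed to compound for about 90 hours before reading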
[5] = molecular target: Glucose-6-phosphate 1-dehydrogenase (Homo sapiens, UniProt P11413); assay: human G6PD enzyme inhibitors, dose response, selectivity assay for P. falciparum G6PD inhibitor project, biochemical, fluorescence (AID 504792); format: functional
Vero = assay: cells; format: functional; conditions: Chlorocebus sabaeus
[6] = molecular target: T2, Mitochondrial peptide methionine sulfoxide reductase (Bos taurus, UniProt P54149); assay: Absorbance-based biochemical high throughput dose response assay for activators of Methionine sulfoxide reductase A (MsrA).; format: functional
T2 sequence (P54149 whole entry): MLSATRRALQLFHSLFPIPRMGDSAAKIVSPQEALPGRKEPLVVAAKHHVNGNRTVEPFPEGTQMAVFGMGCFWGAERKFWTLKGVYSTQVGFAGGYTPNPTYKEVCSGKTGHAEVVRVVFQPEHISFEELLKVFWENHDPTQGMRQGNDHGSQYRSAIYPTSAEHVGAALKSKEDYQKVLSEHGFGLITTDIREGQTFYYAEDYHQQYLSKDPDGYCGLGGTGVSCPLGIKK

[7] = molecular target: SWI/SNF-related matrix-associated actin-dependent regulator of chromatin subfamily A member 2 (Homo sapiens, UniProt P51531); assay: Luminescence-based cell-based high throughput dose response assay to identify activators of the function of SWI/SNF related, matrix associated, actin dependent regulator of chromatin, subfamily a, member 2 (SMARCA2, BRM).; format: functional
[8] = Counterscreen for activators of the function of SWI/SNF related, matrix associated, actin dependent regulator of chromatin, subfamily a, member 2 (SMARCA2, BRM): Luminescence-based cell-based high throughput dose response assay to identify non-selective compounds using the VP16 reporter assay.; format: functional
[9] = P. falciparum late gametocyte killing, dose response, luminescence (AID 1117278); format: functional, cell-based;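 further: gametocytes exposed to compound for 24 hours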
[10] = Jurkat T cell cytotoxicity, dose response, cytotoxicity control for P. falciparum gametocyte viability project, luminescence (AID 1117277); format: functional, cell-based;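 further: potency reflects loss of cellular ATP meaning fewer viable cells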
Fatty acid synthase = Fatty acid synthase (Homo sapiens, UniProt P49327); assay: FAS thioesterase domain inhibitors, SAR follow-up, biochemical, endpoint fluorescence intensity, powder samples (AID 652164); format: functional
[11] = Luminescence Cell-Based Dose Confirmation HTS to Identify Activators of 5'UTR Stem-Loop Driven Alpha-Synuclein mRNA Translation in H4 Neuroglioblastoma Cells. [Related pubchem assays: 1829 (Project Summary), 1814 (Primary HTS)]; format: functional
[12] = Luminescence Cell-Based Dose Response HTS to Identify Activators of Luciferase Translation or Activity in H4 […] Cells. [Related pubchem assays: 1829 (Project Summary), 1814 (Primary HTS)]; format: functional
H4 = assay: Luminescence Cell-Based Dose Response HTS to Identify Activators of 5'UTR Stem-Loop Driven Prion Protein mRNA Translation in H4 Neuroglioblastoma Cells. [Related pubchem assays: 1829 (Project Summary), 1814 (Primary HTS)]; format: functional; conditions: Homo sapiens
[13] = ADAM10 inhibitors, peptide cleavage, dose response, biochemical, QFRET (AID 743254);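 further: ADAM10 enzyme with the DM2 quenched FRET peptide as substrate; EDANS fluorescence gain as the protease cuts the substrate; inhibitor potency against ADAM10 proteolytic activity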
cells = format: functional, cell-based
[14] = molecular target: T3, Nuclear receptor subfamily 0 group B member 1 (Homo sapiens, UniProt P51843); format: functional, cell-based;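 further: HEK293T cells transfected with SF-1 and DAX-1 plus StAR promoter luciferase reporter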
T3 sequence (P51843 whole entry): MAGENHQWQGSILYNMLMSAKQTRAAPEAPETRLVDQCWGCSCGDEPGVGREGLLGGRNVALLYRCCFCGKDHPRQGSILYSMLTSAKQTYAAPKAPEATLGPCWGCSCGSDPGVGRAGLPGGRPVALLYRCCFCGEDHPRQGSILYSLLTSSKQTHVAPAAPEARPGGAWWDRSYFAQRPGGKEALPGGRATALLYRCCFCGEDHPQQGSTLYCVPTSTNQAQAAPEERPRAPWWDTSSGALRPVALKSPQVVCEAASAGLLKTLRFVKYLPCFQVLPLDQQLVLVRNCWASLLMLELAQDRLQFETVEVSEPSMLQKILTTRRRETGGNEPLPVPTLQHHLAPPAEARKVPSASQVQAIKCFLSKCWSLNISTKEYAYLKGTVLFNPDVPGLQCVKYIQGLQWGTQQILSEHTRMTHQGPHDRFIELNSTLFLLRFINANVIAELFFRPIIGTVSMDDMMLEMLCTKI

[15] = test system: Streptococcus sp. 'group A'; assay: growth inhibition of control SK(-) GAS strain, dose response, counter-screen for streptokinase expression inhibitor project, luminescence, kanamycin, BacTiterGlo, confirmation (AID 1900); format: functional, organism-based
Streptokinase A = molecular target: T4, Streptokinase A (Streptococcus pyogenes serotype M1, UniProt P10520); assay: S. pyogenes streptokinase expression inhibitors, potency, dose response, plasminogen activation absorbance, OD405 (AID 1914); format: functional, Streptococcus pyogenes M1 GAS;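 further: secreted streptokinase activity via plasminogen activation per viability signal from cell pellet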
T4 sequence (P10520 whole entry): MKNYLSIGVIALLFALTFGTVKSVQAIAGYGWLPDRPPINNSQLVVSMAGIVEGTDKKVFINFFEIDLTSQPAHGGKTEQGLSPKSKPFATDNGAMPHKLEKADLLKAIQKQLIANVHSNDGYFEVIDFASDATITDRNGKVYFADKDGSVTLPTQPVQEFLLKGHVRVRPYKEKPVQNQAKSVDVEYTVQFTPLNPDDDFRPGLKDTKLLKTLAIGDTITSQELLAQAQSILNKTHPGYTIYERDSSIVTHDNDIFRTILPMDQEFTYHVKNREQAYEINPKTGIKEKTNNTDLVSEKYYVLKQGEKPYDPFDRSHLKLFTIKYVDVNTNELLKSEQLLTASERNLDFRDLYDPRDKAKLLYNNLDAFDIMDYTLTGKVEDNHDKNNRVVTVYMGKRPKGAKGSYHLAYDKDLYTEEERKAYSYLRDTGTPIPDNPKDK

Streptococcus = assay: Group A Streptococcus viability loss, dose response, counter-screen for streptokinase expression inhibitor project, luminescence, BacTiterGlo (AID 1915); format: functional, organism-based;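 further: potency for reduction of bacterial viability or growth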
[16] = molecular target: T5, Methionyl-tRNA synthetase, putative (Trypanosoma brucei brucei, UniProt Q38C91); format: functional, Trypanosoma brucei brucei strain 927/4 GUTat10.1
T5 sequence (Q38C91 whole entry): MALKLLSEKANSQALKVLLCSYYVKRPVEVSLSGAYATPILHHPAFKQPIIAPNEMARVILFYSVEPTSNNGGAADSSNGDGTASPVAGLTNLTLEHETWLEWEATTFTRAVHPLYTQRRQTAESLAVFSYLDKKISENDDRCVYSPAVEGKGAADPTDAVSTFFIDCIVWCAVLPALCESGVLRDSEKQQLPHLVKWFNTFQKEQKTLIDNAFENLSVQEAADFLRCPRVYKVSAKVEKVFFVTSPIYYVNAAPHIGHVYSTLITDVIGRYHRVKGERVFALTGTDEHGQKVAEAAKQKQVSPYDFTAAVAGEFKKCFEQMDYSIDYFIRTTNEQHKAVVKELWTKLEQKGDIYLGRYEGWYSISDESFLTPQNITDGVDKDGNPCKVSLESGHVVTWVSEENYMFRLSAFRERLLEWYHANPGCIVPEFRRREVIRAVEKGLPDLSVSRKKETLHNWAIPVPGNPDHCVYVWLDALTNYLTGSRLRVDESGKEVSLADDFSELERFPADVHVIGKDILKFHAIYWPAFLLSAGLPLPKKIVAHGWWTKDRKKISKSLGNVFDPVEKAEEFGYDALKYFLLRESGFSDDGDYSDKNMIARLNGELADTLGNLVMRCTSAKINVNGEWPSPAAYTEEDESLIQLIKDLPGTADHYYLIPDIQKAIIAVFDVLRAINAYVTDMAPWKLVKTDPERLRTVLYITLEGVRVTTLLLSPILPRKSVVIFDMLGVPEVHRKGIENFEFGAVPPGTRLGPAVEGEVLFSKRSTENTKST

[17] = Counterscreen for inhibitors of Trypanosoma brucei methionyl tRNA synthetase (MetRS): Luminescence-based cell-based high throughput dose response assay to identify compounds that are cytotoxic to Jurkat human T lymphocyte cells.; format: functional
[18] = molecular target: T5, Methionyl-tRNA synthetase, putative; format: functional, Trypanosoma brucei brucei strain 927/4 GUTat10.1; remark: listed apart in the source
[19] = lymphoblastoid cell cytotoxicity, dose response, cytotoxicity control, plate reader, dry powder, set 2 (AID 624367); format: functional
INS1 = assay: beta cell apoptosis inhibitors, cytokine rescue, dose response, luminescence, retest (AID 449756); format: functional, cell-based; conditions: Rattus norvegicus;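 further: cell death triggered by IL-1 beta plus TNF-alpha plus IFN-gamma mixture; protective hits raise ATP signal compared with cytokine alone wells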
[20] = molecular target: T6, COUP transcription factor 2 (Homo sapiens, UniProt P24468); assay: Luminescence-based cell-based high throughput dose response assay to identify inhibitors of COUP-TFII (NR2F2).; format: functional;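 further: HEK293 cells transiently cotransfected with COUP-TFII expression vector and reporter; luciferase reporter luminescence driven by COUP-TFII from the pX2-168 reporter plasmid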
T6 sequence (P24468 whole entry): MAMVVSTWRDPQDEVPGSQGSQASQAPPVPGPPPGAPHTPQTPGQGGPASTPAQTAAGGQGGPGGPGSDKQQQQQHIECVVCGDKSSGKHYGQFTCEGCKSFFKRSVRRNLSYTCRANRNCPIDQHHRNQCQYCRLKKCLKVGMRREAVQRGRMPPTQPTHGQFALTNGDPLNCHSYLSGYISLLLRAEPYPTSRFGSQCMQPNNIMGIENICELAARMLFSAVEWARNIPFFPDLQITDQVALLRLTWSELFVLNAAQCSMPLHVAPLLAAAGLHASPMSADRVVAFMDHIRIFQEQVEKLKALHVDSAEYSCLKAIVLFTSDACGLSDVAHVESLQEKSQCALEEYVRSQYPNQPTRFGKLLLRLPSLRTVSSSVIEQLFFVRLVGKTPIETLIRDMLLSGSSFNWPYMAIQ

Sequence of SWI/SNF-related matrix-associated actin-dependent regulator of chromatin subfamily A member 2 (P51531 whole entry): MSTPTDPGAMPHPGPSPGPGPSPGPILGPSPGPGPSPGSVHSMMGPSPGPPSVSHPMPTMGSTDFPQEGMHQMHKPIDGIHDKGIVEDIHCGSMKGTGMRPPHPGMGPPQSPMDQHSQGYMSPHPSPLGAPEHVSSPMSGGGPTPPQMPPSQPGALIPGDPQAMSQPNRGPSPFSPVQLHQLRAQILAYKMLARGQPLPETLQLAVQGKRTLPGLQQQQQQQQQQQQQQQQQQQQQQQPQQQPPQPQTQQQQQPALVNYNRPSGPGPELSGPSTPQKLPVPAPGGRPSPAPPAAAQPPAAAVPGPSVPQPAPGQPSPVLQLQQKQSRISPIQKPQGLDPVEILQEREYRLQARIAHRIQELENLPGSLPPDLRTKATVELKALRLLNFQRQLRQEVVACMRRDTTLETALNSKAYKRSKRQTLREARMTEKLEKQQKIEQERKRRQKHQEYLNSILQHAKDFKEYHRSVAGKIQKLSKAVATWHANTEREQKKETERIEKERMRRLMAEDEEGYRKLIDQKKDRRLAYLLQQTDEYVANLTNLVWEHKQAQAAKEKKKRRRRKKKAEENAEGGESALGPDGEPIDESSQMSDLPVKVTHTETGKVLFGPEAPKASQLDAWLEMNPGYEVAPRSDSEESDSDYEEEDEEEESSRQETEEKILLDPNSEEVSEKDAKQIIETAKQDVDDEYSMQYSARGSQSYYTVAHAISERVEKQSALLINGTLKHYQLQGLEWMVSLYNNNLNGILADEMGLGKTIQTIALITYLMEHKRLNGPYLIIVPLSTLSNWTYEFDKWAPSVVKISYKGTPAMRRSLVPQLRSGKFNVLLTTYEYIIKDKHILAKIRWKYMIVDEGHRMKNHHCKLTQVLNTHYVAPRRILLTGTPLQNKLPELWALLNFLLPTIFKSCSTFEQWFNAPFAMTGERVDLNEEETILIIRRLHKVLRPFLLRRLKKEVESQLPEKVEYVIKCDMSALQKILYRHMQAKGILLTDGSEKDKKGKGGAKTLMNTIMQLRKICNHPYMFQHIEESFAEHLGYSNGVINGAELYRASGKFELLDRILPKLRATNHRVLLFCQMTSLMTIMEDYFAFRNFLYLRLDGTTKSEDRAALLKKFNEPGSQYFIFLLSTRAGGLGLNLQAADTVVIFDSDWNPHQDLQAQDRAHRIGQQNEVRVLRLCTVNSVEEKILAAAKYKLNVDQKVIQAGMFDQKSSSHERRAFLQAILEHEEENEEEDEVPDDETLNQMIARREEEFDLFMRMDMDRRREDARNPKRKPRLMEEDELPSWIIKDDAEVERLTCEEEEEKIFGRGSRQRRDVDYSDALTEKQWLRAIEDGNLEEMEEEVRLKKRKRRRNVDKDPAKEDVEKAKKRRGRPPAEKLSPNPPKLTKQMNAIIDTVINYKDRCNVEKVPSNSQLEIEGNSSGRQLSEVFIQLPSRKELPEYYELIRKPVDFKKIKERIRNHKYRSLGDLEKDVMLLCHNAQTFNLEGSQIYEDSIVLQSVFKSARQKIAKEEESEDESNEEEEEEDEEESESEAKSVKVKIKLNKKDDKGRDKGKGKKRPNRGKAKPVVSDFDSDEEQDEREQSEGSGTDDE
Sequence of Mu-type opioid receptor (P35372 whole entry): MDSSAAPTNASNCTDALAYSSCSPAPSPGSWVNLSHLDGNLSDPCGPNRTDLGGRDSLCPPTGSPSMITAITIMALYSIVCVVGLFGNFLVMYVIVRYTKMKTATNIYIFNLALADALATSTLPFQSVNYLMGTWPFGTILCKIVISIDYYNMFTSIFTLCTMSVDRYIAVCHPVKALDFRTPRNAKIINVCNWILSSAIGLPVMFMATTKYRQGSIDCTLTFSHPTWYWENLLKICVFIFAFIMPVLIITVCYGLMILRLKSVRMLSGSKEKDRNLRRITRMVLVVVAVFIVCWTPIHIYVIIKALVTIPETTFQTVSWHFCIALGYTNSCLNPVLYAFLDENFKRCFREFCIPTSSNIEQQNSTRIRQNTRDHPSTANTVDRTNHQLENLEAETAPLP
Sequence of 5-hydroxytryptamine receptor 2A (P35363 whole entry): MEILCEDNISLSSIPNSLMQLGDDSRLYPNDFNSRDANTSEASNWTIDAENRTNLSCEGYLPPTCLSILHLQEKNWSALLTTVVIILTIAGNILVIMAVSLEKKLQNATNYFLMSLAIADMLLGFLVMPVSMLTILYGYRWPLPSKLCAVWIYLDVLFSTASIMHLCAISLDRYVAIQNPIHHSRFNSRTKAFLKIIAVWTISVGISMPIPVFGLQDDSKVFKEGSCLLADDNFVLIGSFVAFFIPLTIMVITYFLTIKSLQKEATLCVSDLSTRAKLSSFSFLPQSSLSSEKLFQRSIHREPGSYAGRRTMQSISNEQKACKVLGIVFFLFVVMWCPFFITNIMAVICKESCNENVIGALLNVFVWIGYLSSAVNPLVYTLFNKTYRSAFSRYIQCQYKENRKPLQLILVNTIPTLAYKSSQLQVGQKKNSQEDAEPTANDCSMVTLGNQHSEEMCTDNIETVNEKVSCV
Sequence of Large T antigen (P03070 whole entry): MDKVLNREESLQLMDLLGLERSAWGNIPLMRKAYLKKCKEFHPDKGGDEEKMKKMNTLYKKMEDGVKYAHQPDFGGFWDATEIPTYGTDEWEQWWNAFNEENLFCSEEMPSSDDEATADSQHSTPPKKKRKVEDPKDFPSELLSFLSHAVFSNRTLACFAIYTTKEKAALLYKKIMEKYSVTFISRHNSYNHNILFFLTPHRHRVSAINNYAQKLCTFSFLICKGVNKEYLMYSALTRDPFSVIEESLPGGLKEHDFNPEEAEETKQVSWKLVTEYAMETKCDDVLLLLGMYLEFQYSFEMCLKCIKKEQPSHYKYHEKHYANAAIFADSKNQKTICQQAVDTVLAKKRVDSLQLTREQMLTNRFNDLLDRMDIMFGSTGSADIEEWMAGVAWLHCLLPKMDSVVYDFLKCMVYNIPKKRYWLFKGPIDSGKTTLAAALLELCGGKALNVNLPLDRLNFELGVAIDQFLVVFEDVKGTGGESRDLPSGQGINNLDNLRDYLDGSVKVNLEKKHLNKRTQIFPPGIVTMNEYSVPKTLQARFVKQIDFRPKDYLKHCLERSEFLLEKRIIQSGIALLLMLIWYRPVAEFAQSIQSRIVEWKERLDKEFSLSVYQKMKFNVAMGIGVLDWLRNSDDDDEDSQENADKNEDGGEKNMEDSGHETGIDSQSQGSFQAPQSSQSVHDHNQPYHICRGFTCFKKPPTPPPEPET
Sequence of Cytochrome P450 3A4 (P08684 whole entry): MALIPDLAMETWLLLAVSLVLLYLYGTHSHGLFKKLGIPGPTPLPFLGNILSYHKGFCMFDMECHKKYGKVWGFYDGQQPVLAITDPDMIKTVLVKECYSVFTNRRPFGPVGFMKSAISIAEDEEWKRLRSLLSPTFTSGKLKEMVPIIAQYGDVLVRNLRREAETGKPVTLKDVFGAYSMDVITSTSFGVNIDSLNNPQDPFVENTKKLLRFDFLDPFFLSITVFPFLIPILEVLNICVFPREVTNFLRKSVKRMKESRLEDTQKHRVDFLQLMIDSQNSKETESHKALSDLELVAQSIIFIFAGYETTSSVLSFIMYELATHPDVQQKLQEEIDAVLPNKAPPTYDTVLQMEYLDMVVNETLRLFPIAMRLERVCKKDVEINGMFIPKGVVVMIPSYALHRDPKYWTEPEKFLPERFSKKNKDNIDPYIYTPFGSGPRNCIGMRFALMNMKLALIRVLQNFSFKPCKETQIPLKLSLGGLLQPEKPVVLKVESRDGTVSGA
Sequence of Glucose-6-phosphate 1-dehydrogenase (P11413 whole entry): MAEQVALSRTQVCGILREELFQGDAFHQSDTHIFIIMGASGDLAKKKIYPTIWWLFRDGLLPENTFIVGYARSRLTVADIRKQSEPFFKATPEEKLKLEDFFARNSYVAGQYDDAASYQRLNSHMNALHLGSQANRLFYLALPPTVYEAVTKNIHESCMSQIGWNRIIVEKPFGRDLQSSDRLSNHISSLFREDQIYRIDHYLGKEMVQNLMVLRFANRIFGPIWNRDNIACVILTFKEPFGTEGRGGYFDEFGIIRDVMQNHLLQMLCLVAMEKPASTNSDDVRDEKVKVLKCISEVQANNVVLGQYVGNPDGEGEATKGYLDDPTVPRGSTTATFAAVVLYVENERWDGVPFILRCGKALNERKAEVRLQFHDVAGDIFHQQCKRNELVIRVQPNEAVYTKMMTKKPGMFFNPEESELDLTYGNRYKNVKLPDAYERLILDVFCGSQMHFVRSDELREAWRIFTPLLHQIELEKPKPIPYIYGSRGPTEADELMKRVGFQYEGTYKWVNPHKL

Cc1nn(Cc2c(Cl)cccc2Cl)c(C)c1NC(=O)c1cnn2c(C(F)F)cc(-c3ccccc3)nc12
AC50 [1]: 26 µM (active)
AC50 (Cytochrome P450 1A2): 31.6 µM (inconclusive)
AC50 (Cytochrome P450 3A4): inconclusive

CCCN(CCc1ccccc1)C1CCc2c(O)cccc2C1 (stereo not drawn)
EC50 (Mu-type opioid receptor): 92.6 µM (inactive)
EC50 [2]: 0.0038 µM (active)

O=c1[nH]sc2cc(F)ccc12
IC50 (Large T antigen): 33.3 µM (active)
EC50 [3]: 0.202 µM (active)
EC50 [4]: 16.1 µM (active)
IC50 [5]: > 80 µM (inactive)
CC50 (Vero): > 25 µM (active)
EC50 [6]: > 104 µM (inactive)
EC50 [7]: > 91.1 µM (inactive)
EC50 [8]: > 91.1 µM (inactive)
IC50 [9]: > 36.3 µM (inactive)
IC50 [10]: 22.2 µM (inactive)

CN(C)S(=O)(=O)c1ccc(-c2csc(NC(=O)C3CC3)n2)cc1
IC50 (Fatty acid synthase): 1.23 µM (active)

CNC[C@H](O)c1cccc(O)c1 [PHENYLEPHRINE HYDROCHLORIDE]
EC50 (Mu-type opioid receptor): 92.4 µM (inactive)
EC50 [2]: 19.3 µM (inactive)

CCc1ccc(-c2cn(C3CCCCC3)c(S)n2)cc1
EC50 [11]: 67.1 µM (active)
EC50 [12]: > 120 µM (not active)
EC50 (H4): > 60 µM (not active)
IC50 [13]: > 69.5 µM (inactive)

Cc1noc(C)c1-c1ccc(C(=O)Nc2ccccc2)c2occc12
IC50 (cells): > 67.5 µM (inactive)
IC50 [14]: > 2.5 µM (active)

COc1ccc(Cc2nnc(S)n2NC(=O)Nc2ccc(Cl)c(Cl)c2)cc1
EC50 [15]: 3.39 µM (active)
EC50 (Streptokinase A): 20.3 µM (active)
EC50 (Streptococcus): 63.3 µM (active)
IC50 [16]: 76.2 µM (inactive)
IC50 [17]: 54.2 µM (inactive)
IC50 [18]: 17.7 µM (inactive)

COc1ccc2oc(C(=O)NCC3CCCO3)c(C)c2c1 (stereo not drawn)
IC50 (cells): > 67.6 µM (inactive)
IC50 [14]: > 67.6 µM (inactive)

CN1C(=O)c2cc(NC(=O)c3ccc(C(F)(F)F)cc3)ccc2OC[C@H]2O[C@@H](CC(=O)NC3Cc4ccccc4C3)CC[C@H]21
AbsAC35 [19]: 40.05 µM

CC(C)OCCCNc1[nH]cnc2c3cc(F)ccc3nc1-2
AC50 (INS1): 1.63 µM (active)
AC50 [1]: > 52 µM (inactive)
IC50 [20]: 6.62 µM (active)

O=C(COC(=O)c1nc(Cl)c(Cl)c(Cl)c1Cl)c1ccc[nH]1
EC50 [7]: > 91.1 µM (inactive)
EC50 [8]: > 91.1 µM (inactive)

From ChEMBL document CHEMBL1201862, “PubChem BioAssay data set” (2004)
